Assay results as given in PMC4601019, “Bacillus cereus eﬄux protein BC3310 – a multidrug transporter of the unknown major facilitator family, UMF-2” (Frontiers in Microbiology, 2015).

Target: T1, BC3310 (Bacillus cereus, UniProt Q81B77)
T1 construct: gene BC_3310; full-length in pTTQ18 with C-terminal RGSHis6 tag, expressed in E. coli DH5alpha deltaacrAB; 12 predicted TM helices; migrates at ~30 kDa
Assay: whole-cell ethidium accumulation assay (fluorescence), E. coli expressing BC3310 vs empty vector
Format: cell-based
Conditions: 25 uM ethidium bromide, PBS with 0.4% glucose, pH 7-7.4; CCCP-sensitive efflux

T1 sequence (Q81B77 entry or part of it): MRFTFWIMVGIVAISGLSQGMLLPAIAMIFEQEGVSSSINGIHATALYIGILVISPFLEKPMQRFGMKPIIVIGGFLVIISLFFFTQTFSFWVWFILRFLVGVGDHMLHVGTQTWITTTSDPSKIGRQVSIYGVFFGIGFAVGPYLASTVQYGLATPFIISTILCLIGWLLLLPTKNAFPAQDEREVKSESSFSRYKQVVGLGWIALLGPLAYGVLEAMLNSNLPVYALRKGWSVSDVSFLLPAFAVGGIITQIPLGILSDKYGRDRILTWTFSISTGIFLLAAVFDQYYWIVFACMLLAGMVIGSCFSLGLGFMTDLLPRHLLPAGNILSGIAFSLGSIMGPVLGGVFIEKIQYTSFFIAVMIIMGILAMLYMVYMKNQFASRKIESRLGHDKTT

Structure (SMILES): CC[n+]1c(-c2ccccc2)c2cc(N)ccc2c2ccc(N)cc21 [ethidium bromide]
- whole-cell ethidium accumulation assay (fluorescence), E. coli expressing BC3310: showed less fluorescence compared to the empty vector control (pTTQ18), thereby implying that BC3310 exports
